Laboratory results as given in PubChem BioAssay AID179 (DTP/NCI, 2004).
The source made the active and inactive calls.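 Rule for the calls: active = compounds giving half or more protection of infected cells from virus-caused growth loss, again on retest; inactive = the rest.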

Tested on: CEM cells HIV-1 protection, formazan growth assay
Experiment: NCI AIDS Antiviral Assay
Settings: for IC50: measured here: growth of uninfected CEM cells
How it was run: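 Human CEM cells, uninfected and HIV-1-infected, received five drug concentrations, and growth was read by soluble formazan assay. Compounds giving at least 50% protection were retested; reproducible 100% protection defined confirmed active.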

| Structure (SMILES) | EC50 [µM] | IC50 [µM] | outcome |
| --- | --- | --- | --- |
| O=C1OCC2(CO)SC(c3ccccc3)NC12 (stereo unspecified) | > 525 | > 525 |  |
| COc1cc2c(cc1O)C(CSC)Cc1cc3c(cc1N(C)CC2)OCO3 (stereo unspecified) | > 148 | 12 |  |
| C[N+](C)(C)Cc1c(CC#N)[nH]c2ccccc12 | > 123 | 66.1 |  |
| O=C(NC(=O)c1ccccc1)Nc1ccccc1 | > 14.1 | > 14.1 |  |
| COc1ccccc1NC(=O)C(/C=N/C(=S)NNC(C)=O)=C(/C)O | > 200 | > 200 |  |
| O=C1[O][Hg][c]2cccc3cccc1c23 |  |  | inactive |
| COc1ccc(OCC(=O)O)c2c1CCC(C(C)C)C2=O (stereo unspecified) |  |  | inactive |
| CCOC(=O)c1nc2c(Cl)c3ncccc3cc2[nH]c1=O | > 200 | 12 |  |
| COC1OC(OCCC#N)C(OCCC#N)C(OCCC#N)C1OCCC#N (stereo unspecified) | > 200 | > 200 |  |
| CCOC(=O)c1no[n+]([O-])c1C(=O)OCC | > 200 | 5.75 |  |
| CCOC(=O)c1[nH]cc(C)c1-c1ccc2c(-c3ccccc3)nc3ccccc3n12 | > 200 | 3.16 |  |
| O=C(O)CCCC[P+](c1ccccc1)(c1ccccc1)c1ccccc1 | > 200 | > 200 |  |
| Clc1ccc(Nc2nnc(CCCCCCCCc3nnc(Nc4ccc(Cl)cc4)o3)o2)cc1 | > 200 | 45.7 |  |
| CCC12CC[C@H](C#N)N3CCc4c(n(c5ccccc45)C(=O)C1)C32 (stereo partly specified) |  |  | inactive |
| C[N+](C)(CCNC(=O)c1cccc2cc3ccccc3nc12)Cc1ccc([N+](=O)[O-])cc1 | > 200 | 97.7 |  |
| O=C1NC(c2ccco2)N2C(=O)NC(c3ccco3)N12 (stereo unspecified) |  |  | inactive |
| Cc1cn(C2OC(CO)(C(F)(F)F)C(O)C2O)c(=O)[nH]c1=O (stereo unspecified) | > 200 | > 200 |  |
| CN(C)CCCNc1c2ccccc2nc2cccc([N+](=O)[O-])c12 | > 0.2 | 0.000407 |  |
| Nc1c(Br)cc(-c2cc(Br)c(N)c(Br)c2)cc1Br | > 200 | 138 |  |
| COc1cc(C2C(=O)C(Cl)N2Nc2nc(C)cc(=O)[nH]2)cc(OC)c1OC (stereo unspecified) | > 66.1 | 9.77 |  |
| CN/N=C(\C(=O)Nc1ccc(C)c(C)c1)C(C(=O)OC)c1nc2ccc([N+](=O)[O-])cc2[nH]c1=O (stereo unspecified) | > 77.6 | > 77.6 |  |
| Nc1nc(=S)[nH]c(N)c1N=O | 85.1 | 120 |  |
| CC(=O)O[C@@H]1[C@H](OC2CCCCC2(c2ccccc2)c2ccccc2)O[N+]([O-])=CC12CCCCC2 (stereo partly specified) | > 200 | 2.69 |  |

| Structure (SMILES) | EC50 [µM] | IC50 [µM] | outcome |
| --- | --- | --- | --- |
| CCOc1ccc(NCC(=O)N2CC(=O)Nc3cc(C)c(C)cc32)cc1 | > 20.4 | > 20.4 |  |
| O=C1C(c2ccccc2)=[N+]([O-])c2cc([N+](=O)[O-])c(/C(Cl)=C/c3ccccc3)cc21 |  |  | inactive |
| O=C(COC(=O)c1cccc2c(=O)c3ccccc3[nH]c12)Nc1ccc(S(=O)(=O)Nc2ncccn2)cc1 |  |  | inactive |
| CCN(CC)C(C(=O)Nc1c(C)cccc1C)N(CC)CC | > 200 | > 200 |  |
| CCC12OC(=O)C34CC(C(=O)N(CCc5c3[nH]c3ccccc53)C41)C2I (stereo unspecified) |  |  | inactive |
| COc1cc(CN=c2nc(N(C)C)ss2)cc(OC)c1OC | > 100 | 6.92 |  |
| Cc1cc(C)c(C#N)c(SCC(=O)c2sc3c(C#N)c(C)cc(C)[n+]3c2[O-])n1 | > 6.61 | > 6.61 |  |
| Cc1cc(-c2c(O)c3ccc4ccccc4c3oc2=O)no1 | > 20 | > 20 |  |
| CCSc1ccc2c3c(cccc13)C(=O)N(CCc1ccccn1)C2=O | > 200 | > 200 |  |
| CCOc1cc2c(cc1O)C(O)C[C@@H]1[C@@H]2CC[C@]2(C)[C@@H](O)CC[C@@H]12 (stereo partly specified) | > 200 | 0.0776 |  |
| CCOC(=O)C1=C(OC(OCC)C(C)[Se]c2ccccc2)CCC1 (stereo unspecified) | > 46.8 | 42.7 |  |
| Nc1nc(N)c(CCCCc2ccccc2)c(C=O)n1 |  |  | inactive |
| O=Cc1cc([N+](=O)[O-])no1 |  |  | inactive |
| CN(C)C(=S)SC(=S)N(C)C | > 200 | 11 |  |
| CCC(=O)CCCC=C(c1cc(Cl)c(OC)c(C=O)c1)c1cc(Cl)c(OC)c(C=O)c1 | > 200 | 1.12 |  |
| CCOC(=O)C1CCN(C(=O)c2ccccc2)c2scc(-c3ccccc3)c2C1=O (stereo unspecified) | > 100 | 13.8 |  |
| O=c1c(-c2ccccc2)nc2ccccc2n1CC1CCCN2CCCC[C@H]12 (stereo partly specified) | > 200 | 39.8 |  |
| Nc1ncnc2c1ncn2C1CCC(COS(N)(=O)=O)C1 (stereo unspecified) | > 200 | > 200 |  |
| Fc1ccc2c3c([nH]c2c1)CCN(Cc1ccccc1)C3 | > 200 | 38 |  |
| Cc1ccc(S(=O)(=O)Oc2nc3ccccc3nc2OS(=O)(=O)c2ccc(C)cc2)cc1 | > 200 | 38.9 |  |
| CCC(C)N1CN(c2ccccc2)C2(CCN(CCCC(=O)c3ccc(F)cc3)CC2)C1=O (stereo unspecified) | > 200 | 3.55 |  |
| CC1CC(=O)Nc2ccc(Cl)cc2N1C(=O)CN1CCC(CCCCN(C)C)CC1 (stereo unspecified) | > 251 | 129 |  |
